The values that follow come from publication PMC9532399, “The lysosomal transporter TAPL has a dual role as peptide translocator and phosphatidylserine floppase” (Nature Communications, 2022).

The experiment deals with T1, mouse TAPL ΔTMD0 (Mus musculus, UniProt Q9JJ59).
T1 construct: thrombin cleavage site (C); eGFP (C); 10XHis (C); made in house; host or cells: Trichoplusia ni High Five (Hi5) insect cells, baculovirus (pVL1393)
T1 sequence (Q9JJ59 143-762): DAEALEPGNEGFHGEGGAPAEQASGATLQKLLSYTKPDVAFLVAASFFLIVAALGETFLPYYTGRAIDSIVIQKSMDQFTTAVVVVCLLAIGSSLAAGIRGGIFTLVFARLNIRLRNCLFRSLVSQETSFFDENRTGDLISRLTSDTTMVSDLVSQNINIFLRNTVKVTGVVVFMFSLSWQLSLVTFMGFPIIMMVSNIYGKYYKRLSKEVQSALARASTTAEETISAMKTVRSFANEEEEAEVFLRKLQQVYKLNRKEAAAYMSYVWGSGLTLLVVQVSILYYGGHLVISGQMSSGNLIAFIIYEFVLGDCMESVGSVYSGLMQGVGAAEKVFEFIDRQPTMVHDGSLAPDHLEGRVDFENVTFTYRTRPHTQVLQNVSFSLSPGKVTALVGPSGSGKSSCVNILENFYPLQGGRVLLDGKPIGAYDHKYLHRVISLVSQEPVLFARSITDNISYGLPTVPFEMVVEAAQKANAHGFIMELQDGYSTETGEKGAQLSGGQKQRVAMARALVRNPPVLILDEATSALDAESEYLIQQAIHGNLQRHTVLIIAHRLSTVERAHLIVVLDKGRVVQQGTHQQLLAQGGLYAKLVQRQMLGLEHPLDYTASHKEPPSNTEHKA
Description: Dithionite-based flip-flop (floppase) assay of NBD*-labeled lipids, ΔTMD0 proteoliposomes. Type of experiment: biochemical. Conditions: for fluorescence remaining after dithionite: 10 mM dithionite. The method, then:
All lipids used in reconstitution were purchased from Avanti Polar Lipids, Inc. (purity > 99%). The in vitro flip–flop assay was performed using NBD* dye-labeled proteoliposomes as described previously. Briefly, E. coli polar lipids and egg PC were mixed in a 1:1 molar ratio, and 0.5% (mol/mol) NBD*-lipid was added. The lipid mixture was then dried under nitrogen gas. The NBD*-lipids used were 18:1-06:0 NBD*-PS (1-oleoyl-2-{6-[(7-nitro-2-1,3-benzoxadiazol-4-yl)amino]hexanoyl}-sn-glycero-3-phosphoserine), 18:1-06:0 NBD*-PC (1-oleoyl-2-{6-[(7-nitro-2-1,3-benzoxadiazol-4-yl)amino]hexanoyl}-sn-glycero-3-phosphocholine), 18:1-06:0 NBD*-PG (1-oleoyl-2-{6-[(7-nitro-2-1,3-benzoxadiazol-4-yl)amino]hexanoyl}-sn-glycero-3-[phospho-rac-(1-glycerol)]), 18:1-06:0 NBD*-PE (1-oleoyl-2-{6-[(7-nitro-2-1,3-benzoxadiazol-4-yl)amino]hexanoyl}-sn-glycero-3-phosphoethanolamine), and 25-NBD*-Cholesterol (25-[N-[(7-nitro-2-1,3-benzoxadiazol-4-yl)methyl]amino]−27-norcholesterol). Thin lipid films were solubilized in 20 mM HEPES–NaOH pH 8.0, 200 mM NaCl and 5% (v/v) glycerol, incubated at RT for 30 min and subjected to 5 freeze–thaw cycles. After extrusion with a Mini-Extruder at 65 °C, final lipid concentrations were determined by phosphorus assays. Briefly, 10 μL of extruded lipid was added to 10 μL of 2% (w/v) ammonium molybdate and 300 μL of concentrated perchloric acid. The mixture was heated at 250 °C for 30 min, then cooled to RT and mixed with 1.5 mL of 0.4% (w/v) ammonium molybdate and 250 μL of 9% (w/v) L-ascorbic acid. It was again heated at 100 °C for 6 min and cooled to RT. Lipid concentrations were calculated from the absorbance at 820 nm using a standard curve prepared with NaH2PO4 solution. After accurately determining the lipid concentration, DM-purified protein and 5 mM lipid suspension (solubilized in 5 mM DM) were mixed 1:25 (w/w). After incubation at 4 °C for 1.5 h, DM detergent was removed with 75 mg Bio-beads SM-2 by periodic gentle shaking for 1 h at 4 °C (Supplementary Fig. 5a). The beads were replaced once, followed by an additional incubation at 4 °C for 2 h to completely remove detergent. The resulting proteoliposomes were collected by ultracentrifugation at 200,000×g for 1.5 h at 4 °C.
To measure the flip–flop activity, 10 μL of 2 mM NBD*-labeled proteoliposomes were added to 100 μL of reaction buffer (20 mM HEPES–NaOH pH 8.0, 200 mM NaCl, 5 mM ATP and 5% (v/v) glycerol) in the presence of 2 mM MgCl2 (or NaCl), and incubated at 37 °C for 1 h. The mixture was transferred to a 96-well plate and time-dependent fluorescence (λex/λem = 460/538 nm) was recorded every 30 s for 26 min using a fluorescence spectrophotometer (Gemini XPS). After the baseline fluorescence had stabilized, 10 mM sodium dithionite was added to quench the fluorescence of NBD*-lipid present in the outer leaflets of the liposomes. The initial rapid drop and subsequent slow decline in fluorescence intensity were monitored. When a new steady state was established, 1% (v/v) Triton X-100 was added to completely disrupt the liposomes. The net percentage of NBD*-lipid translocated across the lipid bilayer was calculated from the following equation[72]: the percentage of protected NBD*-lipid in the inner leaflet = [(FD−F0)/(FT−F0)]×100, and that of accessible NBD*-lipid in the outer leaflet = [(FT−FD)/(FT−F0)]×100, where FT is the total fluorescence of the sample before the addition of dithionite, FD is the fluorescence of the sample after quenching with dithionite, and F0 is any residual fluorescence of the sample after solubilization with Triton X-100. Fluorescence values (FT, FD, F0) were calculated as the averages of 5 points on the respective plateau lines. The ΔTMD0-mediated lipid floppase activity was determined by subtracting the percentage of NBD*-lipid fluorescence measured in the presence of Na^+/ATP from that measured in the presence of Mg^2+/ATP.

On to `CCCCCCCC/C=C\CCCCCCCC(=O)OC[C@H](COP(=O)(O)OC[C@H](N)C(=O)O)OC(=O)CCCCCNc1ccc([N+](=O)[O-])c2nonc12` [NBD*-PS, 1-oleoyl-2-{6-[(7-nitro-2-1,3-benzoxadiazol-4-yl)amino]hexanoyl}-sn-glycero-3-phosphoserine], for which the “difference of inner leaflet fluorescence with and without hydrolysable ATP” value (Mg2+/ATP minus Na+/ATP) is reported as ~ 4.5%. In addition, the “NBD*-PS fluorescence intensity (net percentage transported outer to inner leaflet)” value (Mg2+/ATP minus Na+/ATP, 5 mM ATP, 37 °C 1 h, no peptide, no POPS, mean n=9) is on record as 4.53%. For the same molecule, the “NBD*-PS fluorescence intensity (net percentage transported)” value came out at 2.081% (Mg2+/ATP minus Na+/ATP, with 9-mer peptide, mean n=5); 2.6371% (Mg2+/ATP minus Na+/ATP, with 10% (mol/mol) POPS, mean n=5); 5.0115% (no peptide, no POPS, replicate I); 5.082% (no peptide, no POPS, replicate II); 5.234% (no peptide, no POPS, replicate III); 3.911% (no peptide, no POPS, replicate IV). Moreover, the “NBD*-PS fluorescence intensity (net percentage transported)” value runs as follows: (no peptide, no POPS, replicate IX) 4.577%; (no peptide, no POPS, replicate V) 3.922%; (no peptide, no POPS, replicate VI) 4.247%; (no peptide, no POPS, replicate VII) 4.366%; (no peptide, no POPS, replicate VIII) 4.416%; (with 9-mer peptide, replicate I) 2.499%. Also, the “NBD*-PS fluorescence intensity (net percentage transported)” value is, setting by setting: (with 9-mer peptide, replicate II) 2.553%; (with 9-mer peptide, replicate III) 1.795%; (with 9-mer peptide, replicate IV) 1.566%; (with 9-mer peptide, replicate V) 1.9894%; (with 10% (mol/mol) POPS, replicate I) 2.817%; (with 10% (mol/mol) POPS, replicate II) 2.678%. Besides, the “NBD*-PS fluorescence intensity (net percentage transported)” value by setting is: (with 10% (mol/mol) POPS, replicate III) 2.164%; (with 10% (mol/mol) POPS, replicate IV) 2.878%; (with 10% (mol/mol) POPS, replicate V) 2.648%. For the same molecule, the “fluorescence remaining after dithionite” value by setting is: (Mg2+/ATP, % of original value) ~ 36.2%; (Na+/ATP, % of original fluorescence) ~ 31.7%. For the same molecule, the “ATP-dependent lipid transport by ΔTMD0” value (NBD*-labeled lipid, PE, PG, PC and cholesterol data not shown) is “high”. In addition, the “true active floppase activity of the transporter” value (ΔTMD0 minus E664Q) was ~ 2.6%.
“RRYQNSTC^5-IAFL [9-mer, 5-IAF-labeled peptide of 9 residues (RRYQNSTC^5-IAFL)]”: under “10% (mol/mol) unlabeled POPS, or presence of the 9-mer peptide”, the “effect on translocation of NBD*-PS” value was “inhibited”.
